Reference: patent US9492471B2, “Methods of treating a disease or disorder associated with Bruton'S Tyrosine Kinase” (Celgene Avilomics Research, Inc., priority 2013, dated 2016)
Like-named read-outs stand apart in the source and are kept apart here.

Columns and labels:
Assay in all cases: HotSpot kinase profiling
Type in all cases: biochemical
[1] = target: T1, EPHB4 (Homo sapiens, UniProt P54760)
T1 construct: purchased Reaction Biology Corp
T1 sequence (P54760 16-987): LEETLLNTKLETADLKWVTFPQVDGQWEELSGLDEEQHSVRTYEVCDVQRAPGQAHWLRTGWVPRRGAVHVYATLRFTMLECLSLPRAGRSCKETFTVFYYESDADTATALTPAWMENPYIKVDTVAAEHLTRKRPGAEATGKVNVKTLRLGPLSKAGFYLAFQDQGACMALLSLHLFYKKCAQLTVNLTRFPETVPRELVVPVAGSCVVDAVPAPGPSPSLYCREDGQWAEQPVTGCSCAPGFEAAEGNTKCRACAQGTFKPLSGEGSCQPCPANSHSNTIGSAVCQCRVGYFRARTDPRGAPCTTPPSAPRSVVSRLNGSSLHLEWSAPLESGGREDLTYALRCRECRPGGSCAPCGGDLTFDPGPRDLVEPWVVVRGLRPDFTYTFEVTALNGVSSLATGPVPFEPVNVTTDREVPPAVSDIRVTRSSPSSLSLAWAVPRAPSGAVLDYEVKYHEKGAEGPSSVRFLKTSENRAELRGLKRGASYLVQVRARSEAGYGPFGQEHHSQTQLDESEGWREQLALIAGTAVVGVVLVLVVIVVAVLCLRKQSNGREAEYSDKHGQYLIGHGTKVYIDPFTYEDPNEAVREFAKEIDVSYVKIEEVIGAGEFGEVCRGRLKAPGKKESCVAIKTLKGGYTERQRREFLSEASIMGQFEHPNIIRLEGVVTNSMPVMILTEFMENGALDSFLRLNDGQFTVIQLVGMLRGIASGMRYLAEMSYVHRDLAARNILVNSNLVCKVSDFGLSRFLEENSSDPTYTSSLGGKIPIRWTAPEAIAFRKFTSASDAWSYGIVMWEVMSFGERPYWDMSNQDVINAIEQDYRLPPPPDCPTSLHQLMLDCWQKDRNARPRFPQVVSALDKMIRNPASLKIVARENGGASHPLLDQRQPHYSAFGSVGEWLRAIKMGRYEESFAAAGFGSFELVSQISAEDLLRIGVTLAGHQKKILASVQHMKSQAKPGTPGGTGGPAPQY
How it was run: (§1)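 P81 filtration radiometric readout; 2 h incubation at room temperature; 0.1% phosphoric acid wash; DMSO negative control; % inhibition, mean of replicate runs.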

[2] = target: T2, MUSK (Homo sapiens, UniProt O15146)
T2 construct: purchased Reaction Biology Corp
T2 sequence (O15146 24-869): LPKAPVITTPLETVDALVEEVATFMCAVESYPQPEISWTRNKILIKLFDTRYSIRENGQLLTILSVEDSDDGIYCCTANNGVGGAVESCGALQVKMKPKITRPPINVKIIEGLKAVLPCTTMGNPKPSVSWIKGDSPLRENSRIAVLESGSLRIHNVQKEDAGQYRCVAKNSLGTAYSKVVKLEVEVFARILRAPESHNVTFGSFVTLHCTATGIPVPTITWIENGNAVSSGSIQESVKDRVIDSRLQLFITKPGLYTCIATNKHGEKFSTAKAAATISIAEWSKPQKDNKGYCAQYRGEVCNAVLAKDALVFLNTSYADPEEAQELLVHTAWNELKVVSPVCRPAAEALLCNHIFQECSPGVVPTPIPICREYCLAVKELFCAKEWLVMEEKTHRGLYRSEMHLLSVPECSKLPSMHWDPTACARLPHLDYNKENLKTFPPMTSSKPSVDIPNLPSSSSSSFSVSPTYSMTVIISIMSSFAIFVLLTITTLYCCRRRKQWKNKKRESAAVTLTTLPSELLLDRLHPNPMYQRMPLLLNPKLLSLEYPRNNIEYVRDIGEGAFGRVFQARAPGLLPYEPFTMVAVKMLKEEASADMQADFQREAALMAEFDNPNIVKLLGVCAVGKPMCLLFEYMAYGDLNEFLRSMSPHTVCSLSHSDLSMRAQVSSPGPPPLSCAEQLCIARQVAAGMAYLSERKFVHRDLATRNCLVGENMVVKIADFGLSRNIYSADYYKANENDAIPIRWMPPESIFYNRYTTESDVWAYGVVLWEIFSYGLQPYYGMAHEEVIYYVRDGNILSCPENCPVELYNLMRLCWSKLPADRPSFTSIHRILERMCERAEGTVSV
How it was run: as §1

[3] = target: T3, PDGFRa (Homo sapiens, UniProt P16234)
T3 construct: purchased Reaction Biology Corp
T3 sequence (P16234 24-1089): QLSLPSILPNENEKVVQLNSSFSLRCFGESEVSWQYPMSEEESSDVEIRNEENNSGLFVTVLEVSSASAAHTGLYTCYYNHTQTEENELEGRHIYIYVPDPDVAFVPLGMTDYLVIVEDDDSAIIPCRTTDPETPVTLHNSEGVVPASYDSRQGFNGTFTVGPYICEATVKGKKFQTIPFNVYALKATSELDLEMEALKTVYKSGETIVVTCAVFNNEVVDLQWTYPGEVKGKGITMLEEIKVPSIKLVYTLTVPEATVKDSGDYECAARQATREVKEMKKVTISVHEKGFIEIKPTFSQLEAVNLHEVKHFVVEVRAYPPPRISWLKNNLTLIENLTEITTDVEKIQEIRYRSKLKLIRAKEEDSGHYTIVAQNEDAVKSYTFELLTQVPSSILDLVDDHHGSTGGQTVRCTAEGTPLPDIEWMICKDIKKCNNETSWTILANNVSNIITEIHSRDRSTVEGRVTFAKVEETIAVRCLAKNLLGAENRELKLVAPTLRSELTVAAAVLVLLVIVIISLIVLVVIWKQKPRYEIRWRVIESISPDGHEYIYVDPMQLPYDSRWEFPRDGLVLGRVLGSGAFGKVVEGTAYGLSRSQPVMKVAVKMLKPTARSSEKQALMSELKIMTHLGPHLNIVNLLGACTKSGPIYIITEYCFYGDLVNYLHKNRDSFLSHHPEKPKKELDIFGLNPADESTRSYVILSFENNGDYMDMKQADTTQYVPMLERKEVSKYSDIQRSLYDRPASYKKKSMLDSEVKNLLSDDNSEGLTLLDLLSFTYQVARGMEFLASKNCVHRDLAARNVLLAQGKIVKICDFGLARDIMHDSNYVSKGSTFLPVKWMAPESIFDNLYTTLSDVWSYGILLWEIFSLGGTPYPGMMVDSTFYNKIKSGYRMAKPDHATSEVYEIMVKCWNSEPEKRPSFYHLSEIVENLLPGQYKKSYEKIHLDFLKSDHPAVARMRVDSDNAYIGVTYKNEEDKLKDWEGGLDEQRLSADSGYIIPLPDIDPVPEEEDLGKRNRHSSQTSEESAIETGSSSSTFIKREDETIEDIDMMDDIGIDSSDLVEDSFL
How it was run: as §1

[4] = target: T4, FLT4/VEGFR3 (Homo sapiens, UniProt P35916)
T4 construct: purchased Reaction Biology Corp
T4 sequence (P35916 25-1363): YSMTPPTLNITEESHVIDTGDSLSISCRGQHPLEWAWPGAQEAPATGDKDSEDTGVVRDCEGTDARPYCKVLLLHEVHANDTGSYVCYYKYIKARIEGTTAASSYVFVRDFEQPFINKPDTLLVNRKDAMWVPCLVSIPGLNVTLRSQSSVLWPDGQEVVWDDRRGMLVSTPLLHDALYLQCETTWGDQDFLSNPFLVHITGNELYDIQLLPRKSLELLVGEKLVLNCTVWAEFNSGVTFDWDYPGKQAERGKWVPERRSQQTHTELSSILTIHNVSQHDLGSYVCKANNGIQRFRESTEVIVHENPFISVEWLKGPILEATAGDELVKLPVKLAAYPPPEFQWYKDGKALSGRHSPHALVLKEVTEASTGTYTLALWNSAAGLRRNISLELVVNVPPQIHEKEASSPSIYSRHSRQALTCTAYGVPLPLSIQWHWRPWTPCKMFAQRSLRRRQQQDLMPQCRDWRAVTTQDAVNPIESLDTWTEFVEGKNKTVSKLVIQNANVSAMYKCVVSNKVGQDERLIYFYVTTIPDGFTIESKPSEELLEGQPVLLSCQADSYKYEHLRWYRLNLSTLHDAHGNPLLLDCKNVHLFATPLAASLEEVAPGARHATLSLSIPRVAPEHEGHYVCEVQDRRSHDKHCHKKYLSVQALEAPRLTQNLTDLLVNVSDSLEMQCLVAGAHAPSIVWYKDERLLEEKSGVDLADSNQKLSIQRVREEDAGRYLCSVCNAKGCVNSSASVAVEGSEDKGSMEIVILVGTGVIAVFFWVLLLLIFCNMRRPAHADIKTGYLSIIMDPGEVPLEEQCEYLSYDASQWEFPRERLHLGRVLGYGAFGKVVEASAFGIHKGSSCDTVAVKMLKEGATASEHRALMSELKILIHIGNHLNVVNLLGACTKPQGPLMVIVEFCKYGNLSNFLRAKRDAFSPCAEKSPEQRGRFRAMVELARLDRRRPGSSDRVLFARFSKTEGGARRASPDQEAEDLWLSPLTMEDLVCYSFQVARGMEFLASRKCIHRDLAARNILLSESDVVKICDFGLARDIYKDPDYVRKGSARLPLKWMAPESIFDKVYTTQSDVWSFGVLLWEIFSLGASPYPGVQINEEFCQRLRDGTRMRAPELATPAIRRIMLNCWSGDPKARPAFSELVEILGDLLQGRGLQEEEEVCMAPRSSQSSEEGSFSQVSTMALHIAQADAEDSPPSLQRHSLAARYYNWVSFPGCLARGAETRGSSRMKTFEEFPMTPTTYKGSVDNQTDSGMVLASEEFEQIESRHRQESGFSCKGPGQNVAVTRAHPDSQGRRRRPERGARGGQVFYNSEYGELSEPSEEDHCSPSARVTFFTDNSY
How it was run: as §1

[5] = target: T5, PAK2 (Homo sapiens, UniProt Q13177)
T5 construct: purchased Reaction Biology Corp
T5 sequence (Q13177 whole entry): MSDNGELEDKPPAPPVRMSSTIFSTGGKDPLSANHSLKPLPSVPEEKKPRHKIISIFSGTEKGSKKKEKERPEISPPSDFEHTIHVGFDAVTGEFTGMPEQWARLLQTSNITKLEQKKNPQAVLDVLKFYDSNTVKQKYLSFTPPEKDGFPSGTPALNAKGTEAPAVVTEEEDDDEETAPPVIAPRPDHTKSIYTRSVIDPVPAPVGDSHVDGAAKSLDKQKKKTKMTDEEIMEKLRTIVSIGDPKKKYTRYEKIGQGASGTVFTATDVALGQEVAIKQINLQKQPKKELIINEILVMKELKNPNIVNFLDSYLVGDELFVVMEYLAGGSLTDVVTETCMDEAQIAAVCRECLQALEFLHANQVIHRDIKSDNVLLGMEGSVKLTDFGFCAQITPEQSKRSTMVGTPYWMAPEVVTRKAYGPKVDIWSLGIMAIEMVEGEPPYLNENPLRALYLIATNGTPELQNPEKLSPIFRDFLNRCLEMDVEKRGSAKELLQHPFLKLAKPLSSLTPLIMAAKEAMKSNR
How it was run: as §1

[6] = read-out: % Enzyme Activity (relative to DMSO controls) Run 1
[7] = read-out: % Enzyme Activity (relative to DMSO controls) Run 2

## C=CC(=O)Nc1cccc(Nc2nc(Nc3ccc(OCCOC)c(F)c3)ncc2F)c1 [Compound 2]
[1]
  inhibition at 3 µM: 18.6%
[1]; [6]
  remaining activity at 3 µM: 81.2%
[1]; [7]
  remaining activity at 3 µM: 81.5%
[2]
  inhibition at 3 µM: 30.9%
[2]; [6]
  remaining activity at 3 µM: 70.2%
[2]; [7]
  remaining activity at 3 µM: 68%
[3]
  inhibition at 3 µM: 36.6%
[3]; [6]
  remaining activity at 3 µM: 63.9%
[3]; [7]
  remaining activity at 3 µM: 62.8%
[4]
  inhibition at 3 µM: 56%
[4]; [6]
  remaining activity at 3 µM: 43.8%
[4]; [7]
  remaining activity at 3 µM: 44.2%
[5]
  inhibition at 3 µM: 4.8%
[5]; [6]
  remaining activity at 3 µM: 95.5%
[5]; [7]
  remaining activity at 3 µM: 94.9%
